Reference: patent US6054318A, “Expression of the glucose oxidase gene in transgenic organisms” (Commonwealth Scientific And Industrial Research Organization, priority 1994, dated 2000)

Experiments:
Rhyzoctonia solani = experiment: In vitro growth of R. solani in PD broth, microtitre plate reader; format: cell-based; settings: PD broth plus gluconic acid
Protocol: Glucose oxidase was examined in vitro for its ability to inhibit the growth of an Australian isolate of R. solani. Different concentrations of A. niger glucose oxidase suspended in potato dextrose broth and different amounts of filtrate from T. flavus 32908 and GOH-1 were inoculated with R. solani and fungal growth was monitored using a microtitre plate reader. Duplicates were performed for each experiment and the experiment was repeated twice. […] Growth inhibition curves for R. solani were calculated 26 hours after the start of fungal growth (FIG. 5). […] These values are approximately twice the glucose oxidase IC50 value determined for V. dahliae (2.2 μg/ml).

[1] = test system: Verticillium dahliae microsclerotia and mycelia; settings: added to growth media; cited from earlier work
[2] = test system: Talaromyces flavus glucose oxidase, wild type; settings: T. flavus glucose oxidase; read-out: Km for β-D-glucose; cited from earlier work
[3] = biological target: Aspergillus niger glucose oxidase, wild type (Aspergillus niger, UniProt P13006); settings: A. niger glucose oxidase; read-out: Km for β-D-glucose; cited from earlier work
Aspergillus niger glucose oxidase, wild type, sequence (P13006 17-605): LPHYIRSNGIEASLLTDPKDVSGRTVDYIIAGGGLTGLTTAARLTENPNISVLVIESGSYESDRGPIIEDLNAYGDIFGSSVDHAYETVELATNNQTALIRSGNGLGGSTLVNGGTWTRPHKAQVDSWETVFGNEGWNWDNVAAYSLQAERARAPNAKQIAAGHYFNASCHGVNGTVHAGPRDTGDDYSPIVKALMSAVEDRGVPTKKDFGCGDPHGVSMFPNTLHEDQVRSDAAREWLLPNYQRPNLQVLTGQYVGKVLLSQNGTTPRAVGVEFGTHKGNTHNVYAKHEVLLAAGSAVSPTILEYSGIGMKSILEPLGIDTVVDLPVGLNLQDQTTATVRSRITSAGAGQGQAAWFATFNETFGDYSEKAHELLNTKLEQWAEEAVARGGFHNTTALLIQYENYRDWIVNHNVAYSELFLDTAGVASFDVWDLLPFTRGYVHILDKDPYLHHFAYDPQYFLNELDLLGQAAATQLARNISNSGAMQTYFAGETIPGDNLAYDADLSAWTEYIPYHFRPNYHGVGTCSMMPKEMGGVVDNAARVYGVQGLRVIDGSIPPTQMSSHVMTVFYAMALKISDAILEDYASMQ

SMILES | growth profile of R. solani compared with PD broth alone (Rhyzoctonia solani) | inhibition of microsclerotial germination and mycelial growth [1] | Km [2] [mM] | Km [3] [mM]
O=C(O)[C@H](O)[C@@H](O)[C@H](O)[C@H](O)CO [gluconic acid] | very similar | did not cause inhibition |  | 
O=C[C@H](O)[C@@H](O)[C@H](O)[C@H](O)CO [glucose] |  | did not cause inhibition |  | 
OC[C@H]1O[C@@H](O)[C@H](O)[C@@H](O)[C@@H]1O [β-D-glucose] |  |  | 10.9 | 27
OO [hydrogen peroxide] |  | inhibited microsclerotial germination and mycelial growth |  | 
